Data taken from patent US20180284095A1, “BIOMARKERS ASSOCIATED WITH LSD1 INHIBITORS AND USES THEREOF” (Oryzon Genomics, S.A., priority 2015, published 2018).

What was measured:
Type in all cases: in vivo, mouse
S100A8 = assay: Microarray gene expression in brain, spleen and liver of Hsd:Athymic Nude-Foxn1nu mice (Example 7)
Experimental: (§1) Total RNA was extracted from samples using the RNeasy extraction kit (Qiagen). The quality and concentration of the RNA was analyzed using the Agilent 2100 bioanalyzer and NanoDrop™ ND-1000 (Thermo Scientific). Samples with RNA integrity number (RIN)<6.0 were discarded. Total RNA (0.5 μg) amplification and labelling with Cy3 or Cy5 was carried out using the Eberwein mRNA amplification procedure (Van Gelder et al, Proc Natl Acad Sci USA 1990, 87:1663-1667) employing the MessageAmp™ aRNA amplification kit from Ambion (Applied Biosystems) following the manufacturer's instructions with minor modifications. As hybridization controls, plant mRNAs were transcribed from a plasmid containing the Zea mays Xet (xyloglucan endo-transglycosylase) cDNA and from a plasmid containing the Zea mays Zmmyb42 cDNA, independently prepared Cy3 and Cy5 labelled aRNA from these two RNAs using the Eberwein mRNA amplification procedure (as disclosed in Cerdà et al, Gen Comp Endocrinol 2008, 156:470-481).
(§2) The Cy3- and Cy5-labelled cRNAs and spikes were combined and hybridized to the microarray described in Example 2.6 for 17 h at 60° C. using Agilent's gaskets G2534-60002, G2534A hybridization chambers and DNA Hybridization Oven G2545A, according to the manufacturer's instructions. More specifically, equal amounts of Cy3 and Cy5 labeled Xet aRNA as well as equal amounts of Cy3 and Cy5 labeled Zmmyb42 aRNA were spiked into each mixture hybridized to the array. Arrays were washed and raw data were obtained using Agilent's DNA Microarray Scanner G2505B and Feature Extraction software (v10.1). The raw fluorescence intensity data were processed using applicant's proprietary software, and consists in the following operations:
(§3) Data normalization was carried out by an improved version of the nonlinear Q-splines normalization method (Workman et al., Genome Biol 2002, 3(9):research0048.1-0048.16). Normalization results were presented graphically as MA plots, as first described by Dudoit et al (Dudoit et al, Statistica Sinica, 2002, 12:111-139). Each point corresponds to a probe of the DNA array. M values (vertical axis) are the log-differential expression ratios. A values (horizontal axis) are the log-intensities of the spots. M and A are calculated from the Cy5 and Cy3 intensity values as of each spot. The DNA Array data is normalized using an improved version of non-linear Q-Splines normalization described by Workman et al., Genome Biol 2002, 3(9):research0048.1-0048.16. This process is useful to correct the deviation of the M values from the statistical assumption that most of the spots have M=0 in MA plots. The method allows the adjustment of all M values to form a cloud centered at M=0 in all intensity ranges. The data used to calculate the normalization fitting curve is the totality of the raw measurement dataset, excluding the signals for the probes for the spiked-in plant RNA controls and negative controls. In order to be able to normalize properly the data among all the experiments, the probe-set must include an important group of genes that should have no change (M=0) in the experiment. The normalization function is then applied to all the data, including controls.
(§4) Normalized and log-transformed data were used to calculate log 2 (sample/control) and Fold Change (FC) values. No background subtraction was applied to the signal intensity values during data processing, permitting robust selection of differentially expressed genes with low expression levels at the cost of potential sub-estimation of change when intensity levels are close to the array background level.
(§5) Powered Compound 3, 4 or 5 was dissolved in a 20% solution of 2-hydroxypropyl-R-cyclodextrin in water at the appropriate concentrations, vortexed and placed in an ultrasonic bath for 5 minutes.
(§6) Hsd:Athymic Nude-Foxn1nu mice were maintained in air- and temperature-controlled cages with regular supply of water and food. A maximum of 6 mice/cage were raised. […]

S100A9 = assay: as above
Experimental: as §1, §2, §3, §4, §5, §6

TUBB2C = assay: Microarray gene expression in brain, spleen and liver of Hsd:Athymic Nude-Foxn1nu mice (Example 7), housekeeping gene
Experimental: as §1, §2, §3, §4, §5, §6

TUBB3 = assay: as above
Experimental: as §1, §2, §3, §4, §5, §6

`CN1CCN(C(=O)CN[C@H]2C[C@@H]2c2ccc(OCc3ccccc3)cc2)CC1` (racemic) [Compound 4, 2-(((trans)-2-(4-(benzyloxy)phenyl)cyclopropyl)amino)-1-(4-methylpiperazin-1-yl)ethan-1-one] was tested, and the “Hybridization signal sample_Cy5” value (S100A8; BRAIN, S100A8, 1 mg/kg) was 106.74, the “log2 (sample/control)” value (S100A8; BRAIN, S100A8, 1 mg/kg vs VEH) was −1.761 and the “Hybridization signal sample_Cy5” value (S100A8; BRAIN, S100A8, 3 mg/kg) was 65.756. The “log2 (sample/control)” value (S100A8; BRAIN, S100A8, 3 mg/kg vs VEH) was −2.35, the “Hybridization signal sample_Cy5” value (S100A8; BRAIN, S100A8, 10 mg/kg) was 46.781 and the “log2 (sample/control)” value (S100A8; BRAIN, S100A8, 10 mg/kg vs VEH) was −3.042. For the same molecule, the “Hybridization signal sample_Cy5” value (S100A8; LIVER, S100A8, 1 mg/kg) was 220.788, the “log2 (sample/control)” value (S100A8; LIVER, S100A8, 1 mg/kg vs VEH) was −0.8718 and the “Hybridization signal sample_Cy5” value (S100A8; LIVER, S100A8, 3 mg/kg) was 211.114. The “log2 (sample/control)” value (S100A8; LIVER, S100A8, 3 mg/kg vs VEH) was −1.181, the “Hybridization signal sample_Cy5” value (S100A8; LIVER, S100A8, 10 mg/kg) was 172.461 and the “log2 (sample/control)” value (S100A8; LIVER, S100A8, 10 mg/kg vs VEH) was −1.335. For the same molecule, the “Hybridization signal sample_Cy5” value (S100A8; SPLEEN, S100A8, 1 mg/kg) was 6016.2, the “log2 (sample/control)” value (S100A8; SPLEEN, S100A8, 1 mg/kg vs VEH) was −1.312 and the “Hybridization signal sample_Cy5” value (S100A8; SPLEEN, S100A8, 3 mg/kg) was 1854.43. For the same molecule, the “log2 (sample/control)” value (S100A8; SPLEEN, S100A8, 3 mg/kg vs VEH) was −3.148, the “Hybridization signal sample_Cy5” value (S100A8; SPLEEN, S100A8, 10 mg/kg) was 1214.31 and the “log2 (sample/control)” value (S100A8; SPLEEN, S100A8, 10 mg/kg vs VEH) was −3.587. The “Hybridization signal sample_Cy5” value (S100A9; BRAIN, S100A9, 1 mg/kg) was 306.245, the “log2 (sample/control)” value (S100A9; BRAIN, S100A9, 1 mg/kg vs VEH) was −2.143 and the “Hybridization signal sample_Cy5” value (S100A9; BRAIN, S100A9, 3 mg/kg) was 132.716. For the same molecule, the “log2 (sample/control)” value (S100A9; BRAIN, S100A9, 3 mg/kg vs VEH) was −3.286, the “Hybridization signal sample_Cy5” value (S100A9; BRAIN, S100A9, 10 mg/kg) was 78.7372 and the “log2 (sample/control)” value (S100A9; BRAIN, S100A9, 10 mg/kg vs VEH) was −4.222. The “Hybridization signal sample_Cy5” value (S100A9; LIVER, S100A9, 1 mg/kg) was 666.426, the “log2 (sample/control)” value (S100A9; LIVER, S100A9, 1 mg/kg vs VEH) was −1.192 and the “Hybridization signal sample_Cy5” value (S100A9; LIVER, S100A9, 3 mg/kg) was 490.218. For the same molecule, the “log2 (sample/control)” value (S100A9; LIVER, S100A9, 3 mg/kg vs VEH) was −1.632, the “Hybridization signal sample_Cy5” value (S100A9; LIVER, S100A9, 10 mg/kg) was 386.758 and the “log2 (sample/control)” value (S100A9; LIVER, S100A9, 10 mg/kg vs VEH) was −1.928. The “Hybridization signal sample_Cy5” value (S100A9; SPLEEN, S100A9, 1 mg/kg) was 13748.6, the “log2 (sample/control)” value (S100A9; SPLEEN, S100A9, 1 mg/kg vs VEH) was −1.579 and the “Hybridization signal sample_Cy5” value (S100A9; SPLEEN, S100A9, 3 mg/kg) was 3824.62. For the same molecule, the “log2 (sample/control)” value (S100A9; SPLEEN, S100A9, 3 mg/kg vs VEH) was −3.541, the “Hybridization signal sample_Cy5” value (S100A9; SPLEEN, S100A9, 10 mg/kg) was 2502.64 and the “log2 (sample/control)” value (S100A9; SPLEEN, S100A9, 10 mg/kg vs VEH) was −4.161. For the same molecule, the “Hybridization signal sample_Cy5” value (TUBB2C; BRAIN, 1 mg/kg) was 10016.7, the “log2 (sample/control)” value (TUBB2C; BRAIN, 1 mg/kg vs VEH) was −0.04912 and the “Hybridization signal sample_Cy5” value (TUBB2C; BRAIN, 3 mg/kg) was 9877.42. For the same molecule, the “log2 (sample/control)” value (TUBB2C; BRAIN, 3 mg/kg vs VEH) was −0.06585, the “Hybridization signal sample_Cy5” value (TUBB2C; BRAIN, 10 mg/kg) was 11991.7 and the “log2 (sample/control)” value (TUBB2C; BRAIN, 10 mg/kg vs VEH) was −0.04291. For the same molecule, the “Hybridization signal sample_Cy5” value (TUBB2C; LIVER, 1 mg/kg) was 4327.04, the “log2 (sample/control)” value (TUBB2C; LIVER, 1 mg/kg vs VEH) was 0.2971 and the “Hybridization signal sample_Cy5” value (TUBB2C; LIVER, 3 mg/kg) was 3201.33. For the same molecule, the “log2 (sample/control)” value (TUBB2C; LIVER, 3 mg/kg vs VEH) was 0.1069, the “Hybridization signal sample_Cy5” value (TUBB2C; LIVER, 10 mg/kg) was 3143.68 and the “log2 (sample/control)” value (TUBB2C; LIVER, 10 mg/kg vs VEH) was 0.3292. The “Hybridization signal sample_Cy5” value (TUBB2C; SPLEEN, 1 mg/kg) was 13305.5, the “log2 (sample/control)” value (TUBB2C; SPLEEN, 1 mg/kg vs VEH) was −0.3124 and the “Hybridization signal sample_Cy5” value (TUBB2C; SPLEEN, 3 mg/kg) was 11689.6. The “log2 (sample/control)” value (TUBB2C; SPLEEN, 3 mg/kg vs VEH) was −0.4339, the “Hybridization signal sample_Cy5” value (TUBB2C; SPLEEN, 10 mg/kg) was 6541.2 and the “log2 (sample/control)” value (TUBB2C; SPLEEN, 10 mg/kg vs VEH) was −1.316. The “Hybridization signal sample_Cy5” value (TUBB3; BRAIN, TUBB3, 1 mg/kg) was 4992.04, the “log2 (sample/control)” value (TUBB3; BRAIN, TUBB3, 1 mg/kg vs VEH) was −0.03825 and the “Hybridization signal sample_Cy5” value (TUBB3; BRAIN, TUBB3, 3 mg/kg) was 5129.04. The “log2 (sample/control)” value (TUBB3; BRAIN, TUBB3, 3 mg/kg vs VEH) was 0.07852, the “Hybridization signal sample_Cy5” value (TUBB3; BRAIN, TUBB3, 10 mg/kg) was 5941.88 and the “log2 (sample/control)” value (TUBB3; BRAIN, TUBB3, 10 mg/kg vs VEH) was −0.1778. For the same molecule, the “Hybridization signal sample_Cy5” value (TUBB3; LIVER, TUBB3, 1 mg/kg) was 91.4818, the “log2 (sample/control)” value (TUBB3; LIVER, TUBB3, 1 mg/kg vs VEH) was −0.409 and the “Hybridization signal sample_Cy5” value (TUBB3; LIVER, TUBB3, 3 mg/kg) was 66.7291. For the same molecule, the “log2 (sample/control)” value (TUBB3; LIVER, TUBB3, 3 mg/kg vs VEH) was −0.2432, the “Hybridization signal sample_Cy5” value (TUBB3; LIVER, TUBB3, 10 mg/kg) was 103.99 and the “log2 (sample/control)” value (TUBB3; LIVER, TUBB3, 10 mg/kg vs VEH) was 0.6811. For the same molecule, the “Hybridization signal sample_Cy5” value (TUBB3; SPLEEN, TUBB3, 1 mg/kg) was 76.0246, the “log2 (sample/control)” value (TUBB3; SPLEEN, TUBB3, 1 mg/kg vs VEH) was 0.2314 and the “Hybridization signal sample_Cy5” value (TUBB3; SPLEEN, TUBB3, 3 mg/kg) was 114.188. The “log2 (sample/control)” value (TUBB3; SPLEEN, TUBB3, 3 mg/kg vs VEH) was 0.3352, the “Hybridization signal sample_Cy5” value (TUBB3; SPLEEN, TUBB3, 10 mg/kg) was 154.437 and the “log2 (sample/control)” value (TUBB3; SPLEEN, TUBB3, 10 mg/kg vs VEH) was 0.9169.
